The NIST ThermoML archive (doi:10.1021/acs.jced.9b00535)
Numbers after ± are expanded uncertainties.

Conditions: Liquid, Ebulliometric method (Recirculating still)

With `CC(=O)CC(C)C` [4-methylpentan-2-one] the “vapor or sublimation pressure” value (389.15 K) was 101.3 ± 3 kPa.

With `CC(=O)N(C)C` [N,N-dimethylethanamide] the “vapor or sublimation pressure” value (439.15 K) was 101.3 ± 3 kPa.

With `CCCCO` [butan-1-ol] the “vapor or sublimation pressure” value (390.75 K) was 101.3 ± 3 kPa.
